Two substances from patent US20120083522A1, “MODULATION OF INFLAMMATORY RESPONSES BY FACTOR XI” (Isis Pharmaceuitcals, inc., priority 2009, published 2012) can be followed below.

In the oligonucleotide strings, read from the 5' end, every base follows the letter of its sugar. An asterisk marks phosphorothioate; unmarked linkages are phosphodiester. Other units and linkages are bracketed, terminal groups are in braces. A string of capitals states the bases alone. e = 2'-O-(2-methoxyethyl) (MOE); [5mC] = 5-methylcytosine; d = 2'-deoxy (DNA)

Data set [1] in a line: Cynomolgus monkeys: body and organ weights (Example 29). The class given is in vivo. The procedure:
Groups, each consisting of two male and three female monkeys, were injected subcutaneously with ISIS 416838, ISIS 416850, ISIS 416858, ISIS 416864, or ISIS 417002 in escalating doses. Antisense oligonucleotide was administered to the monkeys at 5 mg/kg three times per a week for week 1; 5 mg/kg twice per week for weeks 2 and 3; 10 mg/kg three times per week for week 4; 10 mg/kg twice per week for weeks 5 and 6; 25 mg/kg three times per week for week 7; and 25 mg/kg twice per week for weeks 8, 9, 10, 11, and 12. One control group, consisting of two male and three female monkeys, was injected subcutaneously with PBS according to the same dosing regimen. An additional experimental group, consisting of two male and three female monkeys, was injected subcutaneously with ISIS 416850 in a chronic, lower dose regimen. Antisense oligonucleotide was administered to the monkeys at 5 mg/kg three times per week for week 1; 5 mg/kg twice per week for week 2 and 3; 10 mg/kg three times per week for week 4; and 10 mg/kg twice per week for weeks 5 to 12. Body weights were measured weekly. Blood samples were collected 14 days and 5 days before the start of treatment and subsequently once per week for Factor XI protein activity analysis in plasma and measurement of various hematologic factors. On day 85, the monkeys were euthanized by exsanguination while under deep anesthesia, and organs harvested for further analysis.
Body weights were taken once weekly throughout the dosing regimen. […] Organ weights were taken after the animals were euthanized and livers, kidneys and spleens were harvested and weighed. […] The ISIS oligonucleotide, ISIS 416850, given with the chronic dose regimen is distinguished from the other oligonucleotides with an asterisk (*).

The nature of data set [2]: Colitis Study F: plasma ALT, AST, BUN, CREAT, CHOL, TBIL. The class given is in vivo, Swiss Webb mice. Particulars: DSS-treated mice, 50 mg/kg s.c. twice a week for 3 weeks. As for the experimental part: (§1) In a first group of 8 Swiss Webb mice, 50 mg/kg of ISIS 404071 was injected subcutaneously twice a week for 3 weeks. Two control groups of 8 mice each were injected with PBS twice a week for 3 weeks. After the oligonucleotide treatment, 4% DSS in water was administered ad libitum for 7 days to the experimental group and one PBS control group. Mice were sacrificed at the end of the study on day 7 after DSS was administered.
Plasma levels of aminotransferases (ALT and AST), blood urea nitrogen (BUN), creatinine (CREAT), cholesterol (CHOL) and total bilirubin (TBIL) were measured after treatment and are shown in Table 47.

Another data set concerns Factor XI mRNA. Description: Colitis Study F: Factor XI mRNA in liver and colon. The note with it: DSS-treated mice, 50 mg/kg, percent of the PBS treated control. The format is in vivo, Swiss Webb mice. The procedure: as §1
The effect of antisense inhibition in the liver and colon levels of Factor XI mRNA after treatment by ISIS 404071 is presented in Table 48 (as a percent of the PBS treated control).

The test system of data set [3] is OVA/alum-induced asthma model. The data set is described as follows: OVA-induced asthma model: BAL eosinophil recruitment (Example 13). The format is in vivo, BALB/c mice. As for the experimental part: The effect of antisense oligonucleotide inhibition of Factor XI and its role in ameliorating asthma was evaluated in an OVA/alum-induced asthma model. Administration of ovalbumin to animals is a well known method to induce […] and has been previously described by Henderson et al. (J. Exp. Med., 1996, 184: 1483-1494).
The mice were divided into four treatment groups of 5 mice each. One group received subcutaneous injections of ISIS 404071 at a dose of 50 mg/kg twice a week for 4 weeks. One group of mice received subcutaneous injections of control oligonucleotide, ISIS 421208, which is a mismatch oligonucleotide sequence of ISIS 404071, at a dose of 50 mg/kg twice a week for 4 weeks. Two groups of mice received subcutaneous injections of PBS twice a week for 4 weeks. One PBS group remained untreated and served as the control group. The second PBS group and both the oligonucleotide treated groups were injected with OVA/alum on days 0 and 14 and nebulized with OVA in PBS on days 24, 25, and 26. The first OVA application served to sensitize the mice against OVA while the second was a challenge application to provoke an asthmatic reaction. Two days following the final dose, the mice were euthanized, bronchial lavage (BAL) was collected and analyses done.
Bronchial asthma, even in its mild form, is characterized by local infiltration and activation of inflammatory and immunoeffector cells, including T lymphocytes, macrophages, eosinophils, and mast cells (Smith D. L. et al., Am. Rev. Respir. Dis. 1993. 148: 523-532). The effect of treatment with ISIS 404071 on bronchoalveolar lavage (BAL) eosinophil recruitment was assessed. BAL cells were stained with hemotoxylin and eosin (H&E). The results are presented in Table 49 as a percentage of total cells in BAL.

Data set [4] relates to soluble CD40 ligand (CD40L). The data set is described as follows: Colitis Study E: CD40L plasma levels. The class given is in vivo, Swiss Webb mice. The note with it: for CD40L plasma levels: DSS-treated mice, day 7, 40 mpk. The procedure:
Two groups 8 Swiss Webb mice were dosed with 40 mg/kg of ISIS 404071 injected subcutaneously twice a week for 3 weeks. Two control groups of 8 Swiss Webb mice were dosed with PBS subcutaneously twice a week for 3 weeks. Both the ASO treated groups and one of the control groups were then given 4% DSS in distilled water for 7 days ad libitum. One of the ASO and DSS treated groups was also given intravenous injections of 20 μg of recombinant human Factor XI protein (Haematologic Technologies Inc.) for 7 consecutive days, starting the day before DSS treatment. Mice were sacrificed at the end of the study on day 7 after DSS was administered.
Plasma levels of soluble CD40 ligand (CD40L) are known to be elevated in cases of inflammatory bowel disease (Ludwiczek, O. et al., Int. J. Colorectal Disease. 2003. 18: 142-147) and may be considered a marker of intestinal inflammation. The effect of antisense inhibition of Factor XI on CD40L levels in the plasma was evaluated at the end of the study on day 7 after DSS was administered and the results are presented in Table 39. CD40L levels in plasma were measured by commercially available ELISA kits (Bender MedSystems, Vienna, Austria, eBioscience, San Diego, Calif.) according to the manufacture's protocols.

Turning to “ISIS 416850: gapmer of Table 8 (antisense eT*eG*e[5mC]*eA*e[5mC]*dA*dG*dT*dT*dT*d[5mC]*dT*dG*dG*d[5mC]*eA*eG*eG*e[5mC]*e[5mC])”, the Body weight in data set [1] (chronic, lower dose regimen (*) 5 then 10 mg/kg s.c., day 1) came out at 2665 g; in data set [1] (chronic, lower dose regimen (*) 5 then 10 mg/kg s.c., day 8), 2579 g; in data set [1] (chronic, lower dose regimen (*) 5 then 10 mg/kg s.c., day 15), 2607 g; in data set [1] (chronic, lower dose regimen (*) 5 then 10 mg/kg s.c., day 22), 2661 g; in data set [1] (chronic, lower dose regimen (*) 5 then 10 mg/kg s.c., day 29) it was 2667 g; in data set [1] (chronic, lower dose regimen (*) 5 then 10 mg/kg s.c., day 36), 2656 g. Moreover, the Body weight in data set [1] (chronic, lower dose regimen (*) 5 then 10 mg/kg s.c., day 43) is reported as 2670 g; in data set [1] (chronic, lower dose regimen (*) 5 then 10 mg/kg s.c., day 50), 2679 g; in data set [1] (escalating doses 5, 10, 25 mg/kg s.c., day 1), 2572 g; in data set [1] (escalating doses 5, 10, 25 mg/kg s.c., day 8) it was 2430 g; in data set [1] (escalating doses 5, 10, 25 mg/kg s.c., day 15), 2474 g; in data set [1] (escalating doses 5, 10, 25 mg/kg s.c., day 22), 2514 g. For the same substance, the Body weight in data set [1] (escalating doses 5, 10, 25 mg/kg s.c., day 29) is on record as 2515 g; in data set [1] (escalating doses 5, 10, 25 mg/kg s.c., day 36), 2545 g; in data set [1] (escalating doses 5, 10, 25 mg/kg s.c., day 43) it was 2544 g; in data set [1] (escalating doses 5, 10, 25 mg/kg s.c., day 50), 2613 g; in data set [1] (escalating doses 5, 10, 25 mg/kg s.c., day 57), 2629 g; in data set [1] (escalating doses 5, 10, 25 mg/kg s.c., day 64), 2642 g. Moreover, the Body weight in data set [1] (escalating doses 5, 10, 25 mg/kg s.c., day 71) was determined as 2769 g; in data set [1] (escalating doses 5, 10, 25 mg/kg s.c., day 78), 2660 g.
Turning to “TGGTAATCCACTTTCAGAGG (eT*eG*eG*eT*eA*dA*dT*d[5mC]*d[5mC]*dA*d[5mC]*dT*dT*dT*d[5mC]*eA*eG*eA*eG*eG) [ISIS 404071, 5-10-5 MOE gapmer targeting murine Factor XI, target start site 869]”, in data set [2], the “Plasma ALT” value is reported as 133.6 U/L, the “Plasma AST” value was determined as 339.3 U/L, the “Plasma BUN” value came out at 29.5 mg/dL and the “Plasma CHOL” value was 170.3 mg/dL. Besides, the “Plasma TBIL” value in data set [2] is 0.7 mg/dL. In addition, in the data set with Factor XI mRNA, the “Factor XI mRNA levels in the Colon” value is 148 % of normal and the “Factor XI mRNA levels in the Liver” value was 24 % of normal. Besides, in data set [3], the “BAL eosinophil recruitment (in words)” value is recorded as “decreased the eosinophil recruitment”. In data set [3] (percentage of total cells in BAL, 50 mg/kg s.c. twice a week for 4 weeks), this substance yielded an Eosinophils of 32%. For the same substance, the “CD40L levels in plasma (in words)” value in data set [4] (Colitis Study E, day 7) is given as “decreased”. Besides, the CD40L plasma levels in data set [4] (no human recombinant FXI) came out at 1.5 ng/mL. The CD40L plasma levels in data set [4] (plus human recombinant FXI 20 ug/mouse/day) came to 1.6 ng/mL.
